Data reported in ChEMBL document CHEMBL1144793, “Synthesis and characterization of 1,3-dihydro-benzo[b][1,4]diazepin-2-one derivatives: Part 3. New potent non-competitive metabotropic glutamate receptor 2/3 antagonists” (Bioorg Med Chem Lett, 2008).
The source made the active and inactive calls. The calls are words filed in the database; no cut-off is given here.

Columns and labels:
[1] = molecular target: T1, Metabotropic glutamate receptor 2 (Rattus norvegicus, UniProt P31421); test: Displacement of [3H]LY354740 from rat mGluR2
[2] = molecular target: T1, Metabotropic glutamate receptor 2; test: Antagonist activity at rat mGluR2 assessed as blockade of (1S,3R)-ACPD-induced inhibition of forskolin-stimulated cAMP production; format: functional
[3] = molecular target: Metabotropic glutamate receptor 3 (Rattus norvegicus, UniProt P31422); test: Antagonist activity at rat mGluR3 expressed in CHO cells assessed as inhibition of glutamate-induced GIRK current; format: functional, cell-based
[4] = molecular target: T1, Metabotropic glutamate receptor 2; test: Antagonist activity at rat mGluR2 expressed in CHO cells assessed as inhibition of glutamta-induced GIRK current; format: functional, cell-based
[5] = Clearance in rat microsomes; format: ADME, Liver, Microsome
Mus musculus = test: Spontaneous locomotor activity in po dosed C57BL/6J mouse assessed as reversal of LY-354740-induced hypoactivity; format: functional
Cytochrome P450 3A4 = Cytochrome P450 3A4 (Homo sapiens, UniProt P08684); test: Inhibition of CYP3A4; format: ADME
[6] = Ratio of drug level in cerebrospinal fluid to plasma at 10 mg/kg, po after 1.5 hrs; format: ADME, organism-based, CSF/Plasma; parameters: dose 10 mg/kg, route oral; conditions: rat
[7] = Drug level in rat brain at 10 mg/kg, po after 1.5 hrs; format: ADME, organism-based; parameters: dose 10 mg/kg, route oral; conditions: read-out: Drug uptake
[8] = Ratio of drug level in brain to plasma at 10 mg/kg, po after 1.5 hrs; format: ADME, organism-based; parameters: dose 10 mg/kg, route oral; conditions: rat
[9] = Binding affinity to ionotropic glutamate receptor
[10] = Binding affinity to GABAA receptor
[11] = Plasma concentration in rat at 10 mg/kg, po after 1.5 hrs; format: ADME, organism-based; parameters: dose 10 mg/kg, route oral

T1 sequence (P31421 whole entry): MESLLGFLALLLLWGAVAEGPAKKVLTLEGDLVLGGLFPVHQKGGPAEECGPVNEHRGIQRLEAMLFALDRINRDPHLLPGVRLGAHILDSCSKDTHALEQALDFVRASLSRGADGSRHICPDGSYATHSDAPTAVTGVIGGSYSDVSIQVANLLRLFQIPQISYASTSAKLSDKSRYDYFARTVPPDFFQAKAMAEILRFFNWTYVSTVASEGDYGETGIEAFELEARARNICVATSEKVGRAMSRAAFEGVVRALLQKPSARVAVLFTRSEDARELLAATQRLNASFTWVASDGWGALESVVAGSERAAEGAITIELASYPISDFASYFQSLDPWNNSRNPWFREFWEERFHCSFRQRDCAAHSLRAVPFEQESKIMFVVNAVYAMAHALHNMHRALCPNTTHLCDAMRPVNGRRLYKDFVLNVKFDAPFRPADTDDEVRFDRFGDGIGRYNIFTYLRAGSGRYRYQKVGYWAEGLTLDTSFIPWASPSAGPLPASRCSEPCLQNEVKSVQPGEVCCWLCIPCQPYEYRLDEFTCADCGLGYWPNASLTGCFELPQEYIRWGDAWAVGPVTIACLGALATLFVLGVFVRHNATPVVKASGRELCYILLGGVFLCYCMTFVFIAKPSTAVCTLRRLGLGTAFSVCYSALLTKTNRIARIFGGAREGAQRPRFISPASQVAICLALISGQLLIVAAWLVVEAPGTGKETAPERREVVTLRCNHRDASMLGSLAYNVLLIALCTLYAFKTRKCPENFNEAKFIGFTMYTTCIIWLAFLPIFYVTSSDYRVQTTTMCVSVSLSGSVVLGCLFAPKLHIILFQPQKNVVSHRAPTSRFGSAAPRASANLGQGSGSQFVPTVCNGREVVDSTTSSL
Metabotropic glutamate receptor 3, sequence (P31422 whole entry): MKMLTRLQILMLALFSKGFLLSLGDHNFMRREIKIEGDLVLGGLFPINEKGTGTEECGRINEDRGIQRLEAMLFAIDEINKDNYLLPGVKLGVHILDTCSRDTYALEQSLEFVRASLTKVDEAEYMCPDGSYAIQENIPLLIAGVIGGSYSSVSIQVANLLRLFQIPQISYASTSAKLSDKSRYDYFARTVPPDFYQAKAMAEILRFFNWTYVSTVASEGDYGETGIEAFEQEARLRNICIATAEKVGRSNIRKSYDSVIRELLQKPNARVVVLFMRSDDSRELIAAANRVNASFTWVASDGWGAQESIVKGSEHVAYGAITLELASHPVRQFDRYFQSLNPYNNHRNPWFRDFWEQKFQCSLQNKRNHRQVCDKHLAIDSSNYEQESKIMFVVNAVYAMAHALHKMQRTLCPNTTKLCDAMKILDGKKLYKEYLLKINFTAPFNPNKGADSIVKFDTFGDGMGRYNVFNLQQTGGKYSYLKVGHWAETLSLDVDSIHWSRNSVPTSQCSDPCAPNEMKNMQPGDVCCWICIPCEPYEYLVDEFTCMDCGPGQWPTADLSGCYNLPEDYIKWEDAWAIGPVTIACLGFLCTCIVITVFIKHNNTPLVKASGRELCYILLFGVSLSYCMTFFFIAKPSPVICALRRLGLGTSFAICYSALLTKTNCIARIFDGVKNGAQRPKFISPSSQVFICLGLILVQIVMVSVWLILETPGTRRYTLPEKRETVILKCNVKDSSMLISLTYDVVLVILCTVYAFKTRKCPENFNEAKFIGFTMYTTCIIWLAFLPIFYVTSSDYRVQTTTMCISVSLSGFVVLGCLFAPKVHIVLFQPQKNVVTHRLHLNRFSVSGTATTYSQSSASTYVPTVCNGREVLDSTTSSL
Cytochrome P450 3A4, sequence (P08684 whole entry): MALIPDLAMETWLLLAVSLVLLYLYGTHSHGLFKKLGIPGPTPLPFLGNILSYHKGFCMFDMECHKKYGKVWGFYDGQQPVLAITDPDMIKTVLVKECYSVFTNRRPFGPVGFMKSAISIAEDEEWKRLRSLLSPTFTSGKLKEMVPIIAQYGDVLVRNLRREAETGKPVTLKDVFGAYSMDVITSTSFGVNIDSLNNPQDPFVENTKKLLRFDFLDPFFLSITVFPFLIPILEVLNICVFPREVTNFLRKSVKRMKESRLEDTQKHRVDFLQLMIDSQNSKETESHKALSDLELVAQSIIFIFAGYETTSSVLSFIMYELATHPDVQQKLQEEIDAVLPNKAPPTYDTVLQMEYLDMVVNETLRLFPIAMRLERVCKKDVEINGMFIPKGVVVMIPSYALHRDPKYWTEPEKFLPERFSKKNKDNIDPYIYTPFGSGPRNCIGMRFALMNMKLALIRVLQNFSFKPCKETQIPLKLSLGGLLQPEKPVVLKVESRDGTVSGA

IC50 [1] [nM] | IC50 [2] [nM] | Structure (SMILES) | other results
43 |  | O=C1CC(c2cccc(-n3ccnc3)c2)=Nc2ccc(C(F)(F)F)cc2N1 | 
7 | 34 | CCOc1cc2c(cc1C(F)(F)F)NC(=O)CC(c1cccc(-n3ccnn3)c1)=N2 | 
38 | 184 | CN(C)c1cc2c(cc1C(F)(F)F)NC(=O)CC(c1cccc(-n3ccnn3)c1)=N2 | 
19 | 73 | CC(C)CNc1cc2c(cc1C(F)(F)F)NC(=O)CC(c1cccc(-n3ccnc3)c1)=N2 | 
70 |  | O=C1CC(c2cccc(-n3ccnn3)c2)=Nc2ccc(OCC(F)(F)F)cc2N1 | 
11 | 14 | CC(C)CN(C)c1cc2c(cc1C(F)(F)F)NC(=O)CC(c1cccc(-n3ccnn3)c1)=N2 | 
4 | 10 | CCc1cc2c(cc1C(F)(F)F)NC(=O)CC(c1cccc(-n3ccnc3)c1)=N2 | 
9 | 39 | Cc1cc2c(cc1C(F)(F)F)NC(=O)CC(c1cccc(-n3ccnn3)c1)=N2 | 
72 |  | O=C1CC(c2cccc(-n3ccnc3)c2)=Nc2ccc(Br)cc2N1 | 
29 | 74 | COc1cc2c(cc1C(F)(F)F)NC(=O)CC(c1cccc(-n3ccnn3)c1)=N2 | 
7 | 17 | O=C1CC(c2cccc(-n3ccnc3)c2)=Nc2ccc(-c3cc(F)ccc3F)cc2N1 | 
92 |  | O=C1CC(c2cccc(-n3ccnn3)c2)=Nc2ccc(C(F)(F)F)cc2N1 | 
466 |  | CC(C)c1ccc2c(c1)NC(=O)CC(c1cccc(-n3ccnn3)c1)=N2 | 
27 | 116 | O=C1CC(c2cccc(-n3ccnn3)c2)=Nc2cc(Cl)c(C(F)(F)F)cc2N1 | 
608 |  | O=C1CC(c2cccc(-n3ccnn3)c2)=Nc2ccc(C(F)F)cc2N1 | 
12 | 19 | Cc1cc2c(cc1C(F)(F)F)NC(=O)CC(c1cccc(-n3ccnc3)c1)=N2 | 

IC50 [1] [nM] | IC50 [2] [nM] | Structure (SMILES) | other results
17 | 24 | O=C1CC(c2cccc(-n3ccnc3)c2)=Nc2ccc(-c3ccc(F)cc3)cc2N1 | IC50 [3]: 17 nM; IC50 [4]: 299 nM
39 | 47 | O=C1CC(c2cccc(-n3ccnc3)c2)=Nc2ccc(-c3ccccc3)cc2N1 | 
22 |  | O=C1CC(c2cccc(-n3ccnc3)c2)=Nc2cc(O)c(-c3ccccc3F)cc2N1 | IC50 [3]: 122 nM; IC50 [4]: 35 nM; CLint scaled [5]: 100 mL/min/kg
130 |  | O=C1CC(c2cccc(-n3ccnn3)c2)=Nc2ccc(Br)cc2N1 | 
17 | 15 | O=C1CC(c2cccc(-n3ccnc3)c2)=Nc2cc(Cl)c(C(F)(F)F)cc2N1 | 
60 |  | O=C1CC(c2cccc(-n3ccnn3)c2)=Nc2ccc(Cl)cc2N1 | 
31 | 36 | O=C1CC(c2cccc(-n3ccnn3)c2)=Nc2ccc(-c3ccc(F)cc3)cc2N1 | 
16 | 37 | O=C1CC(c2cccc(-n3ccnn3)c2)=Nc2ccc(-c3ccccc3F)cc2N1 | ED50 (Mus musculus): 3.3 mg/kg; IC50 (Cytochrome P450 3A4): 4300 nM; Kp at 1.5 h [6]: 0.5; concentration at 1.5 h [7]: 1060 ng/mL; Kp at 1.5 h [8]: 0.9; IC50 [3]: 42 nM; IC50 [4]: 22 nM; Activity [9]: inactive; Activity [10]: inactive; concentration at 1.5 h [11]: 1420 ng/mL
 |  | O=C1CC(c2cccc(-n3ccnc3)c2)=Nc2cc(O)c(C#Cc3ccc(F)cc3)cc2N1 | IC50 [4]: 24 nM
25 |  | O=C1CC(c2cccc(-n3ccnc3)c2)=Nc2ccc(-c3cccc(F)c3)cc2N1 | 
210 |  | O=C1CC(c2cccc(-n3ccnc3)c2)=Nc2ccc(C3CC3)cc2N1 | 
9 | 52 | CN(C)c1cc2c(cc1C(F)(F)F)NC(=O)CC(c1cccc(-n3ccnc3)c1)=N2 | 
42 | 268 | CC(C)CNc1cc2c(cc1C(F)(F)F)NC(=O)CC(c1cccc(-n3ccnn3)c1)=N2 | 
12 | 27 | O=C1CC(c2cccc(-n3ccnc3)c2)=Nc2ccc(-c3ccccc3F)cc2N1 | ED50 (Mus musculus): 12.5 mg/kg; concentration at 1.5 h [7]: 1340 ng/mL; Kp at 1.5 h [8]: 0.5; IC50 [3]: 33 nM; IC50 [4]: 11 nM; concentration at 1.5 h [11]: 2660 ng/mL
17 | 18 | O=C1CC(c2cccc(-n3ccnn3)c2)=Nc2ccc(-c3cc(F)ccc3F)cc2N1 | 
